Laboratory results published in US20240415819A1, “MACROCYCLIC COMPOUNDS AS PROTEASOME SUBUNIT BETA TYPE-5 INHIBITORS” (Lead Discovery Center GmbH, priority 2021, published 2024).

Experiments:
[1] = tested on: MM1 S (B lymphoblast cell line); assay: 48 hr CTG viability assay, MM1S; assay type: cell-based; conditions: Homo sapiens, 48 hr CTG, read-out: MM1S IC50
How it was run: (§1)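 Growth inhibition by compound over 48 h; IC50 (nM) derived from duplicate CellTiter-Glo luminescence readings across 0.0015–10 uM.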

[2] = target: T1, β5 subunit of the human constitutive proteasome (CPS) (Homo sapiens, UniProt P28074); assay: β5 inhibition assay, human constitutive proteasome (Suc-LLVY-AMC); assay type: biochemical; conditions: IC50 class, Suc-LLVY-AMC substrate
T1 construct: purchased Boston Biochem E-360
Description: The enzymatic activity of the β5 subunit of the human constitutive proteasome (CPS) is analyzed. In another assay, which differs from the assay of the human constitutive proteasome only in using the human immunoproteasome (IPS) the enzymatic activity of the β5 subunit of the human immunoproteasome (IPS) is analyzed. […] Inhibition is indicated as IC50 [nM] (“-”=not measured).

[3] = tested on: Hs 746T (human gastric carcinoma cell line); assay: 48 hr CTG viability assay, Hs 746T; assay type: cell-based; conditions: Hs746T, 48 hr CTG, read-out: Hs 746T IC50
How it was run: as §1

[4] = tested on: A549 (human lung carcinoma cell line); assay: Glo assay of A549 cells (Table 3; ProteasomeGlo plating scheme); assay type: cell-based; conditions: Homo sapiens; A549 cells; read-out: PGLo A549
How it was run: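 IC50 values (nM) come from a cell-based chymotrypsin-like Proteasome-Glo luminescence assay. Compound exposure ran 105 min at 37° C.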

[5] = target: T2, β5 subunit of the human immunoproteasome (IPS) (Homo sapiens, UniProt P28062); assay: β5 inhibition assay, human immunoproteasome (Suc-LLVY-AMC); assay type: biochemical; conditions: IC50 class, Suc-LLVY-AMC substrate
T2 construct: purchased Boston Biochem E-370
How it was run: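 Human immunoproteasome (1 nM final) was preincubated 10 min at RT with compound in 100 mM HEPES pH 7.5, 50 mM NaCl, 0.02% SDS, 1 mM DTT. Suc-LLVY-AMC (22.6 μM final) was then added for 4 h at RT in the dark. After stopping with 1 μM bortezomib, AMC fluorescence was read (ex 355/em 460 nm).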

[6] = tested on: RPMI 8226 (B lymphocyte cell line, multiple myeloma); assay: 48 hr CTG viability assay, RPMI 8226; assay type: cell-based; conditions: Homo sapiens, RPMI-8226; 48 hr CTG; read-out: RPMI-8226 IC50
How it was run: as §1

Measured: IC50

COc1ccccc1CCCOCCC(=O)N[C@H]1CC(=O)N2CCCC(CCOc3ccc(C)c(c3)CNC(=O)[C@H](CCc3ccccc3)NC1=O)C2 (stereo partly drawn) [Compound 637, 3-(3-(2-methoxyphenyl)propoxy)-N-((9S,12S)-5^4-methyl-8,11,14-trioxo-9-phenethyl-4-oxa-7,10-diaza-1(3,1)-piperidina-5(1,3)-benzenacyclotetradecaphane-12-yl)propanamide]
< 100 nM: all assays above

Cc1ccc2cc1CNC(=O)[C@H](CCc1ccccc1)NC(=O)[C@@H](NC(=O)CCN1CCC3(CCC3)CC1)CC(=O)N1CCCC(CCO2)C1 (stereo partly drawn) [Compound 638, N-((9S,12S)-5^4-methyl-8,11,14-trioxo-9-phenethyl-4-oxa-7,10-diaza-1(3,1)-piperidina-5(1,3)-benzenacyclotetradecaphane-12-yl)-3-(7-azaspiro[3.5]nonan-7-yl)propanamide]
< 100 nM: all assays above

Cc1ccc2cc1CNC(=O)[C@H](CCc1ccccc1)NC(=O)[C@@H](NC(=O)CCN1CCC3(CCC3)C1)CC(=O)N1CCCC(CCO2)C1 (stereo partly drawn) [Compound 639, N-((9S,12S)-5^4-methyl-8,11,14-trioxo-9-phenethyl-4-oxa-7,10-diaza-1(3,1)-piperidina-5(1,3)-benzenacyclotetradecaphane-12-yl)-3-(6-azaspiro[3.4]octan-6-yl)propanamide]
< 100 nM: all assays above

Cc1ccc2cc1CNC(=O)[C@H](CCc1ccccc1)NC(=O)[C@@H](NC(=O)CCN1CCC3(CCOC3)C1)CC(=O)N1CCCC(CCO2)C1 (stereo partly drawn) [Compound 640, N-((9S,12S)-5^4-methyl-8,11,14-trioxo-9-phenethyl-4-oxa-7,10-diaza-1(3,1)-piperidina-5(1,3)-benzenacyclotetradecaphane-12-yl)-3-(2-oxa-7-azaspiro[4.4]nonan-7-yl)propanamide]
< 100 nM: all assays above

Cc1ccc2cc1CNC(=O)[C@H](CCc1ccccc1)NC(=O)[C@@H](NC(=O)CCN1CCC3(CC1)COC3)CC(=O)N1CCCC(CCO2)C1 (stereo partly drawn) [Compound 641, N-((9S,12S)-5^4-methyl-8,11,14-trioxo-9-phenethyl-4-oxa-7,10-diaza-1(3,1)-piperidina-5(1,3)-benzenacyclotetradecaphane-12-yl)-3-(2-oxa-7-azaspiro[3.5]nonan-7-yl)propanamide]
< 100 nM: all assays above

Cc1ccc2cc1CNC(=O)[C@H](CCc1ccccc1)NC(=O)[C@@H](NC(=O)CCO[C@H]1C[C@@H]3CC[C@H]1C3)CC(=O)N1CCCC(CCO2)C1 [Compound 642, 3-(((1S,2S,4R)-bicyclo[2.2.1]heptan-2-yl)oxy)-N-((9S,12S)-5^4-methyl-8,11,14-trioxo-9-phenethyl-4-oxa-7,10-diaza-1(3,1)-piperidina-5(1,3)-benzenacyclotetradecaphane-12-yl)propanamide]
< 100 nM: all assays above

Cc1ccc2cc1CNC(=O)[C@H](CCc1ccccc1)NC(=O)[C@@H](NC(=O)C1CCCCC1)CC(=O)N1CCCC(CCO2)C1 (stereo partly drawn) [Compound 643, N-((9S,12S)-5^4-methyl-8,11,14-trioxo-9-phenethyl-4-oxa-7,10-diaza-1(3,1)-piperidina-5(1,3)-benzenacyclotetradecaphane-12-yl)cyclohexanecarboxamide]
< 100 nM: all assays above

Cc1ccc2cc1CNC(=O)[C@H](CCc1cccnc1)NC(=O)[C@@H](NC(=O)Cc1ccc(N)cc1C)CC(=O)N1CCCC(CCO2)C1 (stereo partly drawn) [Compound 645, 2-(4-amino-2-methylphenyl)-N-((9S,12S)-5^4-methyl-8,11,14-trioxo-9-(2-(pyridin-3-yl)ethyl)-4-oxa-7,10-diaza-1(3,1)-piperidina-5(1,3)-benzenacyclotetradecaphane-12-yl)acetamide]
< 100 nM: all assays above

Cc1ccc2cc1CNC(=O)[C@H](CCc1ccccc1)NC(=O)[C@@H](NC(=O)C(C)(C)C(F)(F)F)CC(=O)N1CCCC(CCO2)C1 (stereo partly drawn) [Compound 646, 3,3,3-trifluoro-2,2-dimethyl-N-((9S,12S)-5^4-methyl-8,11,14-trioxo-9-phenethyl-4-oxa-7,10-diaza-1(3,1)-piperidina-5(1,3)-benzenacyclotetradecaphane-12-yl)propanamide]
< 100 nM: all assays above

Cc1ccc2cc1CNC(=O)[C@H](CCc1ccccc1)NC(=O)[C@@H](NC(=O)CCNCc1ccccc1)CC(=O)N1CCCC(CCO2)C1 (stereo partly drawn) [Compound 647, 3-(benzylamino)-N-((9S,12S)-5^4-methyl-8,11,14-trioxo-9-phenethyl-4-oxa-7,10-diaza-1(3,1)-piperidina-5(1,3)-benzenacyclotetradecaphane-12-yl)propanamide]
< 100 nM: all assays above

Cc1ccc2cc1CNC(=O)[C@H](CCc1ccccc1)NC(=O)[C@@H](NC(=O)CCN1CCC3(COC3)C1)CC(=O)N1CCCC(CCO2)C1 (stereo partly drawn) [Compound 648, N-((9S,12S)-5^4-methyl-8,11,14-trioxo-9-phenethyl-4-oxa-7,10-diaza-1(3,1)-piperidina-5(1,3)-benzenacyclotetradecaphane-12-yl)-3-(2-oxa-6-azaspiro[3.4]octan-6-yl)propanamide]
< 100 nM: all assays above

Cc1ccc2cc1CNC(=O)[C@H](CCc1ccccc1)NC(=O)[C@@H](NC(=O)CCNC1CC1)CC(=O)N1CCCC(CCO2)C1 (stereo partly drawn) [Compound 649, 3-(cyclopropylamino)-N-((9S,12S)-5^4-methyl-8,11,14-trioxo-9-phenethyl-4-oxa-7,10-diaza-1(3,1)-piperidina-5(1,3)-benzenacyclotetradecaphane-12-yl)propanamide]
< 100 nM: all assays above

Cc1ccc2cc1CNC(=O)[C@H](CCc1ccccc1)NC(=O)[C@@H](NC(=O)CCNC(=O)c1cccc(OCC(C)C)c1)CC(=O)N1CCCC(CCO2)C1 (stereo partly drawn) [Compound 651, 3-isobutoxy-N-(3-(((9S,12S)-5^4-methyl-8,11,14-trioxo-9-phenethyl-4-oxa-7,10-diaza-1(3,1)-piperidina-5(1,3)-benzenacyclotetradecaphane-12-yl)amino)-3-oxopropyl)benzamide]
< 100 nM: all assays above
